Measured values reported in patent US10422775B2, “Methods for determining relative response factors for impurity analysis using liquid chromatography with absorbance and evaporative light scattering detection” (Waters Technologies Corporation, priority 2016, dated 2019).
Several values for one entry are separate records, joined by “and”; a condition that tells them apart may be missing. Equal values may be shown once. One block for each compound: values may come before it.

Experiments:
[1] = Example 2: forced degradation of glimepiride drug substance under basic hydrolysis conditions, UV % impurities and mass balance; format: physicochemical; conditions: for % Area (impurity peaks found in base hydrolysis): degradation peak in glimepiride drug substance
Description: (§1) The chromatographic system was an ultra-high performance liquid chromatography system, specifically, an ACQUITY UPLC H-Class system with a pump (ACQUITY Quaternary Solvent Manager (QSM)), an injector (ACQUITY Flow Through Needle (FTN) Autosampler) and a column manager (ACQUITY Column Manager). The autosampler was configured with a 50 μL extension loop. The seal wash was 90:10 water/methanol, purge solvent was methanol and the needle wash solvent was 0.1% (v/v) formic acid in 30:70 water/acetonitrile. Detection was performed with a photodiode array detector (ACQUITY UPLC PDA), an evaporative light scattering detector (ACQUITY UPLC ELSD) and a mass detector (ACQUITY QDa) (Waters, Milford, Mass.). The eluent flow path was plumbed from the column to a triple static tee (1:10 split flow) housed within a secondary pump (ACQUITY Isocratic Solvent Manager (ISM)). The tubing from the column to the tee was 22.5″ of 0.004″ ID tubing. In the first split, a portion of the flow was diverted to the PDA with 16″ of 100 μm ID fused silica tubing and then, in series, to the ELS detector with 12″ of 0.004″ ID PEEK tubing. Flow from the isocratic solvent manager was introduced into the second splitter, and the final portion of flow was diverted to the mass spectrometer via the detector probe (250 mm). The chromatography data system was Empower 3 FR3 (Waters, Milford, Mass.). The forced degradation was performed using a water bath (Isotemp) purchased from Fisher Scientific.
(§2) The separation of glimepiride and related compounds B and C was achieved on a 2.1 mm×50 mm, 1.8 μm, ACQUITY UPLC HSS T3 C18 column (Waters Corporation) under isocratic conditions. The mobile phase was 0.1% (v/v) formic acid in 60:40 water/acetonitrile at a flow rate of 0.8 mL/min. The column temperature was 30° C. with mobile phase pre-heating. Injection volume was 4 μL. The PDA settings included wavelength of 228 nm, sampling rate of 20 points per second. The ELSD was set to a gas pressure of 25 psi, the nebulizer in Cooling mode, drift tube temperature of 55° C. and the gain set to 100 with a data rate of 10 points per second. The make-up pump was used for post-column addition of solvent using the ISM at a flow rate of 0.3 mL/min with 0.1% (v/v) formic acid in methanol. The mass detector (ACQUITY QDa, Waters Corp, USA) utilized positive electrospray ionization (ESI+), with a cone voltage set to 5 V. The capillary voltage was 1.4 kV and the sampling rate was 5 points per second. The mass range collected was 100-600 Da with additional single ion recording (SIR) channels were collected simultaneously for the following m/z=114.1 Da, 374.6 Da, 432.2 Da and 513.7 Da. The SIR channels were measured with a cone voltage of 5 V.
(§3) Over a period of 7 days, the drug substance was exposed to acidic, basic and oxidative conditions with goals of achieving approximately 10% degradation as quantified by UV. The samples were tested at 2 day intervals and analyzed by UV-ELS and MS.
Under basic hydrolysis conditions, the drug substance degraded rapidly, over a period of 1 day with >10% of degradation. […] In contrast to the previously described analyses, many smaller impurity peaks were observed.
(§4) Mass balance calculations were performed using the experimentally determined RRFs for acidic, oxidative and basic degradation conditions. […] Both the % impurity and recovery were impacted similarly, however, the implications for % impurity are greater, in that impurity reporting, identification and qualification thresholds can be impacted by as little as 0.05%.

[2] = cited from earlier work
[3] = Quantitation of by-product 4-methylcyclohexylamine by MS (SIR m/z 114.1) in acidic degradation of glimepiride; format: physicochemical; conditions: for 4-MeCHA / 4-MeCHA (%): by-product formed from glimepiride, acidic degradation
Description: as §2
Additionally, standards of 4-Methylcylohexylamine for quantitation by mass spectrometry. Specifically, a solution of 4-methylcylcohexylamine was prepared at a concentration of 0.4 mg/mL in 25:75 water/methanol. Working standards were then prepared by diluting the stock with 25:75 water/methanol. Individual calibration standards were prepared in triplicate at 0.04% (w/w), 0.2%, 0.5%, 1%, 2% and 5%, of the sample concentration of 0.250 mg/mL. The labeled purity of 4-methylcylcohexylamine was 99.7%.
Mass detection was employed for confirmation of the degradation pathway and to reconcile mass balance differences. During the formation of both related compound B and related compound C, there is a loss of 4-methylcyclohexylamine (see FIG. 14).
Quantitation of 4-methylcyclohexylamine was achieved utilizing standards prepared from commercially available reagents. Working standards were prepared to cover the range from 0.04 to 10% (0.1 to 25 ug/mL). A single ion recording channel measuring the response for m/z=114.1 Da was used for quantitation. The working standard was present as a mixture of both the cis and trans geometric isomers. These isomers were partially separated chromatographically, therefore the sum of the isomers was used for the calibration curve. The calibration curve was quadratic and converted to a linear relationship using a log-log fit over the desired quantitation range with the parameters listed in the following table.
Using the calibration curve, 4-methylcylcohexylamine was quantified in the acidic and oxidative degradation reactions over the period of 5 days.

[4] = Example 1: forced degradation (acid hydrolysis) of glimepiride with mass balance by UPLC-PDA using RRF; format: physicochemical; design: Amount: unit not given beside the values; conditions: acid hydrolysis 40° C.
Description: The controls and the samples that underwent acid hydrolysis were subjected to the following conditions.
Samples were analyzed using an ultra-high performance liquid chromatography system, specifically the ACUITY UPLC H-Class system from Waters Technologies Corporation. The system included photodiode array (PDA) and ELSD detectors, a quadrapole mass detector, specifically the Qda detector from Waters Technologies Corporation, and solvent and column managers. The PDA detector was used as a detector for UV-Vis absorbance. An ultra-high performance liquid chromatography column with 1.7 μm particle size and 2.1×50 mm column dimensions, specifically the ACUITY UPLC BEH C18 column from Waters Technologies Corporation, was used. The isocratic solvent manager was used with a flow rate of 0.3 mL/min and with 0.1% formic acid in methanol as a solvent. The following settings were used for the PDA and ELSD detectors.
Isocratic and gradients methods were developed for separation of impurities; however, the isocratic method was preferred as changing the solvent composition can affect the response and the size of droplets in ELSD. Mobile phase A was 0.1% (v/v) formic acid in water. Mobile phase B was 0.1% (v/v) formic acid in acetonitrile. The column temperature was 30° C. The injection volume was 2 μL. The flow rate was 0.8 mL/min. The isocratic tests included 60% mobile phase A and 40% mobile phase B. Conditions for the gradient tests are listed below. The system has a quaternary pump with four channels; however, only the A and B channels were used, which is why the C and D values are zero in the table below.
Two degradation impurities were present, which were labeled related compound B and related compound C. To ensure adequate separation and no co-elutions, peak purity was evaluated using a mass analysis window. FIG. 9 includes PDA peak purity and Mass analysis windows in the EMPOWER 3 data analysis software used to evaluate peak purity.
RRFs were calculated for the two impurities and the reciprocal of the RRF was used as a correction factor for each impurity to determine a corrected peak area for the impurity according to the following equation.
A reference sample was run by HPLC and the total corrected PDA peak area was determined for the reference sample as described below. The correction factor of the reciprocal of the RRF for an impurity was used to determine a corrected PDA peak area for each impurity in the reference sample. The total corrected PDA peak area was the sum of the corrected PDA peak area for each impurity and the PDA peak area for the API glimepiride. This total corrected PDA peak is the value used to calculate percentage recovery. Total Corrected peak area=peak areaAPI+ΣimpuritiesCorrected peak areaimpurity (8)
The degraded samples were run by HPLC and the correction factor of the reciprocal RRF for an impurity was used to obtain a corrected PDA peak area for each impurity in each degraded sample. For each degraded sample, a total corrected PDA peak area was calculated as the sum of the corrected PDA peak areas for the impurities and the PDA peak area for the API. The percentage recovery was the total corrected PDA peak area for the degraded sample divided by the total corrected peak are for the reference sample as indicated in the equation below.
Each peak area was determined based on the average of three different injections of the sample. The tables in FIG. 11 show example calculations of mass balance based on the experimental data.
The results of the molar mass balance calculations of data from the forced degradation studies using the RRF calculated in accordance with embodiments described herein are summarized in the table below and are graphically depicted in a chart in FIG. 12.

[5] = cited from earlier work; remark: listed apart in the source
[6] = Example 2: forced degradation of glimepiride drug substance under oxidative conditions (AIBN), UV % impurities and mass balance; format: physicochemical; conditions: for % Impurities: UV
Description: as §1, §2, §3
For example, FIG. 19 includes chromatograms from analysis of a glimepiride drug substance after 5 days of oxidation by AIBN. […] The third peak is a product of the AIBN oxidation (m/z 177.1)-*- as evidenced by analysis of the control. One of the unknown peaks present in the AIBN control (m/z=177.2 Da) was attributed to the reagent. As observed with the acidic hydrolysis of glimepiride, the by-product (m/z=114.1 Da) was also observed. In addition, the oxidation degradation produced two isobaric peaks as determined by the QDa measurement resulting in the same m/z values.
as §4, with “0.05%. […]” for “0.05%.”

[7] = Example 2: forced degradation of glimepiride drug substance under acidic hydrolysis conditions, UV % impurities and mass balance; format: physicochemical; conditions: for % Impurities: UV
Description: as §1, §2, §3
Confirmation of the impurities was provided by the mass spectrometry.
as §4

% Area (impurity peaks found in base hydrolysis) ([1]; 1 day, UV): 1.83%
SMILES: CCC1=C(C)CN(C(=O)NCCc2ccc(S(N)(=O)=O)cc2)C1=O [Related compound B, 3-Ethyl-4-methyl-2-oxo-N-(4-sulfamoylphenethyl)-2,5-dihydro-1H-pyrrole-1-carboxamide]

% Area (impurity peaks found in base hydrolysis) ([1]; 1 day, UV): not observed
SMILES: CCC1=C(C)CN(C(=O)NCCc2ccc(S(=O)(=O)NC(=O)OC)cc2)C1=O [related compound C, methyl((4-(2-(3-ethyl-4-methyl-2-oxo-2,5-dihydro-1H-pyrrole-1-carboxamido)ethyl)phenyl)sulfonyl)carbamate]

increase of recoveries on adding 4-methylcylcohexylamine ([3]; acidic hydrolysis conditions, over the time period): 0.2-1.1%
Absolute Mass Balance Deficit ([4]; 1 day): −0.6
Amount ([4]; 1 day, n = 3): 239.0
Absolute Mass Balance Deficit ([4]; 3 days): −4.3
Amount ([4]; 3 days, n = 3): 242.7
Absolute Mass Balance Deficit ([4]; 5 days): −0.7
Amount ([4]; 5 days, n = 3): 239.1
Absolute Mass Balance Deficit ([4]; 7 days): −5.7
Amount ([4]; 7 days, n = 3): 244.1
Absolute Mass Balance Deficit ([4]; T = 0): 2.3
Amount ([4]; T = 0, n = 3): 236.1
% Impurities with RRF ([6]; 1 day): 1.45%
% Impurities ([6]; 1 day): 1.75%
% Impurities with RRF ([6]; 3 days): 4.05%
% Impurities ([6]; 3 days): 4.83%
% Impurities with RRF ([6]; 5 days): 6.28%
% Impurities ([6]; 5 days): 7.45%
% Impurities with RRF ([6]; 7 days): 8.42%
% Impurities ([6]; 7 days): 9.95%
% Impurities with RRF ([7]; 1 day): 1.95%
% Impurities ([7]; 1 day): 2.35%
% Impurities with RRF ([7]; 3 days): 5.14%
% Impurities ([7]; 3 days): 6.13%
% Impurities with RRF ([7]; 5 days): 8.15%
% Impurities ([7]; 5 days): 9.72% and 9.67%
% Impurities with RRF ([7]; 7 days): 16.69%
% Impurities ([7]; 7 days): 19.55%
% Impurities with RRF ([1]; basic hydrolysis, 1 day): 11.99%
% Impurities with RRF ([1]; basic hydrolysis, 3 days): 31.59%
% Impurities ([1]; basic hydrolysis, 3 days, UV): 33.45%
% Impurities with RRF ([1]; basic hydrolysis, 5 days): 51.92%
SMILES: CCC1=C(C)CN(C(=O)NCCc2ccc(S(=O)(=O)NC(=O)NC3CCC(C)CC3)cc2)C1=O (stereo not drawn) [glimepiride, 1-[[4-[2[(3-ethyl-4-methyl-2-oxo-3pyrroline-1-carboxamido)ethyl]phenyl]-sulphony]-3-trans-(4-methylcyclohexyl)urea]]
soluble in methanol [2]: 0.5 mg/mL
pKa value [5]: 4.32

4-MeCHA ([3]; 1 day): 0.36 µg/mL
4-MeCHA (%) ([3]; 1 day): 0.14%
4-MeCHA ([3]; 3 days): 0.98 µg/mL
4-MeCHA (%) ([3]; 3 days): 0.39%
4-MeCHA ([3]; 5 days): 1.74 µg/mL
4-MeCHA (%) ([3]; 5 days): 0.70%
SMILES: CC1CCC(N)CC1 (centres unmarked) [4-MeCHA, 4-methylcyclohexylamine]
